{"source": "paper PMC10004634", "about": "(PLOS ONE, 2023)", "assay_in_all_cases": "biochemical", "set-up_in_all_cases": "KINOMEscan scanMAX competition binding, DNA-tagged kinases, qPCR read-out, percent control at 300 nM", "key": {"NLK": {"target": "NLK (Homo sapiens, UniProt Q9UBE8)"}, "GSK3B": {"target": "GSK3B (Homo sapiens, UniProt P49841)", "sequence (P49841 whole entry)": "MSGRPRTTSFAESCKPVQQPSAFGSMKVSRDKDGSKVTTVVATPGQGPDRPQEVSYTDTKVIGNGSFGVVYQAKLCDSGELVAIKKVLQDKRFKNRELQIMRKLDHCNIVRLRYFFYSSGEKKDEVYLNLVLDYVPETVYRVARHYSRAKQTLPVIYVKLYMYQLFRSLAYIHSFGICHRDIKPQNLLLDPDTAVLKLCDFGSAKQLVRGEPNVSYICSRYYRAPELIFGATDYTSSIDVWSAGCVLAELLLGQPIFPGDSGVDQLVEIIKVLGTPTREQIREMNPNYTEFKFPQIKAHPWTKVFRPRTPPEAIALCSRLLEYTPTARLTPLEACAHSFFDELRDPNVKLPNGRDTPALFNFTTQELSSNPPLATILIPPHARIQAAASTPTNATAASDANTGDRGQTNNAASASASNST"}, "LOK": {"target": "T1, LOK (Homo sapiens, UniProt O94804)", "T1 construct": "gene STK10"}, "BTK": {"target": "BTK (Homo sapiens, UniProt Q06187)"}, "EPHB1": {"target": "EPHB1 (Homo sapiens, UniProt P54762)", "sequence (P54762 whole entry)": "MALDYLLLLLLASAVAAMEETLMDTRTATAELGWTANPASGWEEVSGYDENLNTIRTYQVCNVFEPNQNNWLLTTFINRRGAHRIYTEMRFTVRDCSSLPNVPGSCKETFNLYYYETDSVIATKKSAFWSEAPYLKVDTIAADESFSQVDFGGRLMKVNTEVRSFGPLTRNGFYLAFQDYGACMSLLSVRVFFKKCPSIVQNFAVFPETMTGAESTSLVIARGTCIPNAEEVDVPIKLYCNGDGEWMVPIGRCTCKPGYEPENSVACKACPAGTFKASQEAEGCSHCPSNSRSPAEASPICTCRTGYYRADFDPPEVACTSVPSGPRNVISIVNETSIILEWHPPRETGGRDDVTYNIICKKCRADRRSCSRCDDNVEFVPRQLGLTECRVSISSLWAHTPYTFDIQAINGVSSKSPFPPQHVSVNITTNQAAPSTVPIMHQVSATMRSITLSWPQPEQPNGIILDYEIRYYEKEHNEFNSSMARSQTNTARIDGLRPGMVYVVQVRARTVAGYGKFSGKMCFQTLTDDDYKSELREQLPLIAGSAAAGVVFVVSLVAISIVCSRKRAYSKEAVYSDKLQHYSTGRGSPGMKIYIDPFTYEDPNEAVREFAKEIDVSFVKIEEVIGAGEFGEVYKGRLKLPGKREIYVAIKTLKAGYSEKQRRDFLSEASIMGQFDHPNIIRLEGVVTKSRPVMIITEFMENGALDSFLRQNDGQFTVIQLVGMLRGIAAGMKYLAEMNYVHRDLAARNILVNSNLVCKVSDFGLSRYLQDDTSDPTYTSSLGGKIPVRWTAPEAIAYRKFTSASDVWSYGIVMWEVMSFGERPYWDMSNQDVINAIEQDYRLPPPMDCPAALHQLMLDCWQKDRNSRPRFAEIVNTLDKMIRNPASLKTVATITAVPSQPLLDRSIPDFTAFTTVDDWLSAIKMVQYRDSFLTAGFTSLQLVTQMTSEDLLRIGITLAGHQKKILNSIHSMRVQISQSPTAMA"}, "CSNK1D": {"target": "CSNK1D (Homo sapiens, UniProt P48730)", "sequence (P48730 whole entry)": "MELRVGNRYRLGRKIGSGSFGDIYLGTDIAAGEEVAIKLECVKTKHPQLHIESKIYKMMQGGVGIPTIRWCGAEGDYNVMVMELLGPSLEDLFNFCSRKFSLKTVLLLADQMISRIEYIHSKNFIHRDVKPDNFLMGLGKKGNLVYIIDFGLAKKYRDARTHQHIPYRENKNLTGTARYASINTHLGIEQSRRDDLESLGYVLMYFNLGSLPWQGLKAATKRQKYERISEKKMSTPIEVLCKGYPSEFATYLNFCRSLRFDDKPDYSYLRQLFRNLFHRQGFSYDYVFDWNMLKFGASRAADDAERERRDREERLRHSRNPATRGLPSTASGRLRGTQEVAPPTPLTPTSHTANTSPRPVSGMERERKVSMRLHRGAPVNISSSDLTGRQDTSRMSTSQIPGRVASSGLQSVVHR"}, "SRPK1": {"target": "SRPK1 (Homo sapiens, UniProt Q96SB4)"}, "LYN": {"target": "LYN (Homo sapiens, UniProt P07948)"}, "ASK2": {"target": "T2, ASK2 (Homo sapiens, UniProt O95382)", "T2 construct": "gene MAP3K6"}, "EGFR(L858R,T790M)": {"target": "EGFR(L858R,T790M) (Homo sapiens, UniProt P00533, L858R/T790M)"}, "IRAK4": {"target": "IRAK4 (Homo sapiens, UniProt Q9NWZ3)"}, "PIP5K2B": {"target": "T3, PIP5K2B (Homo sapiens, UniProt P78356)", "T3 construct": "gene PIP4K2B"}, "[1]": {"target": "T4, ABL1(F317L)-phosphorylated (Homo sapiens, UniProt P00519, F317L)", "T4 construct": "phosphorylated", "T4 sequence (P00519 whole entry F317L)": "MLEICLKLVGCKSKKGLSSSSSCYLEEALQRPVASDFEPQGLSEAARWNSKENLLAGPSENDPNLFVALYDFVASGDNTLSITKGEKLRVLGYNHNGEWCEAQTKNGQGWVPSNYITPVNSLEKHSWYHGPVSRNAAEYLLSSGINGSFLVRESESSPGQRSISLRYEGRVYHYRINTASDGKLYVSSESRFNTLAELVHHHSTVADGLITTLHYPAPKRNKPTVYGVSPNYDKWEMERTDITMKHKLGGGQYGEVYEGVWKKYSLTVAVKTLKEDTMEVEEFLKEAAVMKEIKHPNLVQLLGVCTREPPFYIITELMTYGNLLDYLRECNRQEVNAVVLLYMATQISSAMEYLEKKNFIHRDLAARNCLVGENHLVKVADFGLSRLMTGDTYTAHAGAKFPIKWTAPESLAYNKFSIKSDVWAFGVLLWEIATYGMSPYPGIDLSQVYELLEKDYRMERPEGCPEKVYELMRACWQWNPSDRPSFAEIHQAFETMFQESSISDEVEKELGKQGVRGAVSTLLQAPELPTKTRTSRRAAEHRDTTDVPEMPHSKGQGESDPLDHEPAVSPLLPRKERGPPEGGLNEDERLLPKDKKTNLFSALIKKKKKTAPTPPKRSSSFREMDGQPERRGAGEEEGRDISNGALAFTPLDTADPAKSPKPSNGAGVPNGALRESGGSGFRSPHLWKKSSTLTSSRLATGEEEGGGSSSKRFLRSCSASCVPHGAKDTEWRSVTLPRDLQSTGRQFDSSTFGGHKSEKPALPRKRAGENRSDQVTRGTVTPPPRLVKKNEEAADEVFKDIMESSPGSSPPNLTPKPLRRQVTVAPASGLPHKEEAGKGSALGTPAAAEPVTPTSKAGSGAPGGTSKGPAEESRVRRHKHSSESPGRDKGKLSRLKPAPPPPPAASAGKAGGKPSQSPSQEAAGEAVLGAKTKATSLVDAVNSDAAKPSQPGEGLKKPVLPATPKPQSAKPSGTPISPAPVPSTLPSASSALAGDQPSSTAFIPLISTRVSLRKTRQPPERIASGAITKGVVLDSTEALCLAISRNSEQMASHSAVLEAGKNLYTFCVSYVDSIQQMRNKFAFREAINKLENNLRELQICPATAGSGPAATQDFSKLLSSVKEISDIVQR"}, "PIM1": {"target": "PIM1 (Homo sapiens, UniProt P11309)"}, "IGF1R": {"target": "IGF1R (Homo sapiens, UniProt P08069)"}, "KIT(A829P)": {"target": "KIT(A829P) (Homo sapiens, UniProt P10721, A829P)"}, "MYO3A": {"target": "MYO3A (Homo sapiens, UniProt Q8NEV4)"}, "MLK3": {"target": "T5, MLK3 (Homo sapiens, UniProt Q16584)", "T5 construct": "gene MAP3K11"}, "SNRK": {"target": "SNRK (Homo sapiens, UniProt Q9NRH2)", "sequence (Q9NRH2 whole entry)": "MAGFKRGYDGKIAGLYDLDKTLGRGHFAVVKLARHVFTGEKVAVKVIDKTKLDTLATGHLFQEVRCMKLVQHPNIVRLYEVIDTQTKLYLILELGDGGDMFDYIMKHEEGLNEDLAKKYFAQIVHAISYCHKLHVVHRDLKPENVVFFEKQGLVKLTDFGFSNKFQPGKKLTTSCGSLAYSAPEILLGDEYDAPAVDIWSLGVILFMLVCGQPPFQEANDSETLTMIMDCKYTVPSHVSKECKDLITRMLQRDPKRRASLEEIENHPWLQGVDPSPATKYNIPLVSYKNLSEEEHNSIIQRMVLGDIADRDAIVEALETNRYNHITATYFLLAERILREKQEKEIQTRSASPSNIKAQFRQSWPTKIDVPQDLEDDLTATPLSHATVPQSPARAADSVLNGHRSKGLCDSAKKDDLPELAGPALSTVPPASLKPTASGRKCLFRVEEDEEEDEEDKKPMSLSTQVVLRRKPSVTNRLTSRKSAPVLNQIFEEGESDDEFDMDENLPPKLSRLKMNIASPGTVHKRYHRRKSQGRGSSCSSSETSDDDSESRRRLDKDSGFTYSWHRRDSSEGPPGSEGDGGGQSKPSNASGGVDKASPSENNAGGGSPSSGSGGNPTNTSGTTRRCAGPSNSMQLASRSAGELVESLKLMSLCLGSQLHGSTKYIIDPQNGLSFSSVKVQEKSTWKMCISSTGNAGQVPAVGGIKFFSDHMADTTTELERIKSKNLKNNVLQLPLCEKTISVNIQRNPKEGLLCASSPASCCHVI"}, "[2]": {"target": "T6, RPS6KA4(Kin.Dom.1-N-terminal) (Homo sapiens, UniProt O75676)", "T6 construct": "Kin.Dom.1-N-terminal"}, "YSK1": {"target": "T7, YSK1 (Homo sapiens, UniProt O00506)", "T7 construct": "gene STK25"}, "ERBB3": {"target": "ERBB3 (Homo sapiens, UniProt P21860)", "sequence (P21860 whole entry)": "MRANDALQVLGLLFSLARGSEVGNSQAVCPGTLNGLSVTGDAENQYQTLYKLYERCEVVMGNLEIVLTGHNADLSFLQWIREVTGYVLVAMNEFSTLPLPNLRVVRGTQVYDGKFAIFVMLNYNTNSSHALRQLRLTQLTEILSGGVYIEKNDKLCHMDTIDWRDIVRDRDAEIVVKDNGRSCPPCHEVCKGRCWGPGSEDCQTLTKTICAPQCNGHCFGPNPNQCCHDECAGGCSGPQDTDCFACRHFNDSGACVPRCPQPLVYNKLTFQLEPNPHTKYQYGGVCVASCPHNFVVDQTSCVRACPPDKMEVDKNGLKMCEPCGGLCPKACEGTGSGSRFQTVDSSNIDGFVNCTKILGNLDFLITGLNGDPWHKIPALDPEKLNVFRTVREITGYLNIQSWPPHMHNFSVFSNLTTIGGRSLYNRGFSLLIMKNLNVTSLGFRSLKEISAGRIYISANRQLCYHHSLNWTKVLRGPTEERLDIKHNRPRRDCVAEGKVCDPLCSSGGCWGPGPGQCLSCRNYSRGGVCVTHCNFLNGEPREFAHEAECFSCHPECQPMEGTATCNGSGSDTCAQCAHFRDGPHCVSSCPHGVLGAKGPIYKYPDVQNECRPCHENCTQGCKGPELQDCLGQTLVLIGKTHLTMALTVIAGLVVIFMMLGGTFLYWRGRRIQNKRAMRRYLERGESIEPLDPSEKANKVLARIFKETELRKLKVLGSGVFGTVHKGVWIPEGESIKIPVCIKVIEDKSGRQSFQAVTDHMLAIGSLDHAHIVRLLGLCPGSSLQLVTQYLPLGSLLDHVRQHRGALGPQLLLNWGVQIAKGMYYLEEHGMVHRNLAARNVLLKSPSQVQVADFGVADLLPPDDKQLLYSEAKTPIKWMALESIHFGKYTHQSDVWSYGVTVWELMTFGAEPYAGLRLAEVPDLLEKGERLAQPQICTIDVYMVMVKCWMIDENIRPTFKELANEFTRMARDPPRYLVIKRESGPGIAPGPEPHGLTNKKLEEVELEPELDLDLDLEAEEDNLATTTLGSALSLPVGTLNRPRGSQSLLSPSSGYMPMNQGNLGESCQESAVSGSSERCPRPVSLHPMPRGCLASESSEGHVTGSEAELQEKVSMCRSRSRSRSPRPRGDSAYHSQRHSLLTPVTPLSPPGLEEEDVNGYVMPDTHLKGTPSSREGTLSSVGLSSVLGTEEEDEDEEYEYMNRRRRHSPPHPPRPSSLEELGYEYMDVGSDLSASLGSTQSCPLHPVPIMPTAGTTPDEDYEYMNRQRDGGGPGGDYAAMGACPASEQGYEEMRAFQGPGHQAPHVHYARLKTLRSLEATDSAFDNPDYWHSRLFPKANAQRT"}, "DCAMKL3": {"target": "T8, DCAMKL3 (Homo sapiens, UniProt Q9C098)", "T8 construct": "gene DCLK3"}, "[3]": {"details": "read-out: Percent control / Acalabrutinib"}, "[4]": {"details": "read-out: Percent control / Ibrutinib"}, "[5]": {"details": "read-out: Percent control / Tirabrutinib"}, "[6]": {"details": "read-out: Percent control / Zanubrutinib"}}, "note": "Read-outs that look alike come from different tables or passages of the source.", "data": [{"smiles": "CC#CC(=O)N1CCC[C@H]1c1nc(-c2ccc(C(=O)Nc3ccccn3)cc2)c2c(N)nccn12", "note": "[Acalabrutinib]", "values": [{"measurement": "remaining binding at 0.3 µM", "setting": "NLK; [3]", "value": 78, "unit": "%"}, {"measurement": "remaining binding at 0.3 µM", "setting": "GSK3B; [3]", "value": 97, "unit": "%"}, {"measurement": "remaining binding at 0.3 µM", "setting": "LOK; [3]", "value": 99, "unit": "%"}, {"measurement": "remaining binding at 0.3 µM", "setting": "BTK; [3]", "value": 0.3, "unit": "%"}, {"measurement": "remaining binding at 0.3 µM", "setting": "EPHB1; [3]", "value": 93, "unit": "%"}, {"measurement": "remaining binding at 0.3 µM", "setting": "CSNK1D; [3]", "value": 85, "unit": "%"}, {"measurement": "remaining binding at 0.3 µM", "setting": "SRPK1; [3]", "value": 84, "unit": "%"}, {"measurement": "remaining binding at 0.3 µM", "setting": "LYN; [3]", "value": 88, "unit": "%"}, {"measurement": "remaining binding at 0.3 µM", "setting": "ASK2; [3]", "value": 87, "unit": "%"}, {"measurement": "remaining binding at 0.3 µM", "setting": "EGFR(L858R,T790M); [3]", "value": 97, "unit": "%"}, {"measurement": "remaining binding at 0.3 µM", "setting": "IRAK4; [3]", "value": 97, "unit": "%"}, {"measurement": "remaining binding at 0.3 µM", "setting": "PIP5K2B; [3]", "value": 93, "unit": "%"}, {"measurement": "remaining binding at 0.3 µM", "setting": "[1]; [3]", "value": 81, "unit": "%"}, {"measurement": "remaining binding at 0.3 µM", "setting": "PIM1; [3]", "value": 94, "unit": "%"}, {"measurement": "remaining binding at 0.3 µM", "setting": "IGF1R; [3]", "value": 91, "unit": "%"}, {"measurement": "remaining binding at 0.3 µM", "setting": "KIT(A829P); [3]", "value": 80, "unit": "%"}, {"measurement": "remaining binding at 0.3 µM", "setting": "MYO3A; [3]", "value": 75, "unit": "%"}, {"measurement": "remaining binding at 0.3 µM", "setting": "MLK3; [3]", "value": 87, "unit": "%"}, {"measurement": "remaining binding at 0.3 µM", "setting": "SNRK; [3]", "value": 93, "unit": "%"}]}, {"smiles": "C=CC(=O)N1CCC[C@@H](n2nc(-c3ccc(Oc4ccccc4)cc3)c3c(N)ncnc32)C1", "note": "[Ibrutinib]", "values": [{"measurement": "remaining binding at 0.3 µM", "setting": "[2]; [4]", "value": 87, "unit": "%"}, {"measurement": "remaining binding at 0.3 µM", "setting": "SRPK1; [4]", "value": 85, "unit": "%"}, {"measurement": "remaining binding at 0.3 µM", "setting": "YSK1; [4]", "value": 85, "unit": "%"}, {"measurement": "remaining binding at 0.3 µM", "setting": "ERBB3; [4]", "value": 1.2, "unit": "%"}, {"measurement": "remaining binding at 0.3 µM", "setting": "MYO3A; [4]", "value": 96, "unit": "%"}]}, {"smiles": "CC#CC(=O)N1CC[C@@H](n2c(=O)n(-c3ccc(Oc4ccccc4)cc3)c3c(N)ncnc32)C1", "note": "[Tirabrutinib]", "values": [{"measurement": "remaining binding at 0.3 µM", "setting": "DCAMKL3; [5]", "value": 99, "unit": "%"}, {"measurement": "remaining binding at 0.3 µM", "setting": "BTK; [5]", "value": 3, "unit": "%"}, {"measurement": "remaining binding at 0.3 µM", "setting": "LYN; [5]", "value": 76, "unit": "%"}, {"measurement": "remaining binding at 0.3 µM", "setting": "EGFR(L858R,T790M); [5]", "value": 100, "unit": "%"}, {"measurement": "remaining binding at 0.3 µM", "setting": "[1]; [5]", "value": 57, "unit": "%"}]}, {"smiles": "C=CC(=O)N1CCC([C@@H]2CCNc3c(C(N)=O)c(-c4ccc(Oc5ccccc5)cc4)nn32)CC1", "note": "[Zanubrutinib]", "values": [{"measurement": "remaining binding at 0.3 µM", "setting": "NLK; [6]", "value": 80, "unit": "%"}, {"measurement": "remaining binding at 0.3 µM", "setting": "GSK3B; [6]", "value": 74, "unit": "%"}, {"measurement": "remaining binding at 0.3 µM", "setting": "DCAMKL3; [6]", "value": 100, "unit": "%"}, {"measurement": "remaining binding at 0.3 µM", "setting": "LOK; [6]", "value": 93, "unit": "%"}, {"measurement": "remaining binding at 0.3 µM", "setting": "EPHB1; [6]", "value": 96, "unit": "%"}, {"measurement": "remaining binding at 0.3 µM", "setting": "[2]; [6]", "value": 100, "unit": "%"}, {"measurement": "remaining binding at 0.3 µM", "setting": "CSNK1D; [6]", "value": 100, "unit": "%"}, {"measurement": "remaining binding at 0.3 µM", "setting": "YSK1; [6]", "value": 88, "unit": "%"}, {"measurement": "remaining binding at 0.3 µM", "setting": "ASK2; [6]", "value": 55, "unit": "%"}, {"measurement": "remaining binding at 0.3 µM", "setting": "IRAK4; [6]", "value": 91, "unit": "%"}, {"measurement": "remaining binding at 0.3 µM", "setting": "PIP5K2B; [6]", "value": 88, "unit": "%"}, {"measurement": "remaining binding at 0.3 µM", "setting": "PIM1; [6]", "value": 73, "unit": "%"}, {"measurement": "remaining binding at 0.3 µM", "setting": "IGF1R; [6]", "value": 96, "unit": "%"}, {"measurement": "remaining binding at 0.3 µM", "setting": "KIT(A829P); [6]", "value": 97, "unit": "%"}, {"measurement": "remaining binding at 0.3 µM", "setting": "ERBB3; [6]", "value": 87, "unit": "%"}, {"measurement": "remaining binding at 0.3 µM", "setting": "MLK3; [6]", "value": 98, "unit": "%"}, {"measurement": "remaining binding at 0.3 µM", "setting": "SNRK; [6]", "value": 90, "unit": "%"}]}]}
